Experimental data reported in the supplement of paper PMC10307832.

What was measured:
Assay in all cases: relative viability (nuclei count vs DMSO), 5 days (fraction); higher = more cells survive
Tanzisertib + Trametinib = compound: O[C@H]1CC[C@H](Nc2ncc3nc(Nc4c(F)cc(F)cc4F)n([C@H]4CCOC4)c3n2)CC1 [Tanzisertib] + CC(=O)Nc1cccc(-n2c(=O)n(C3CC3)c(=O)c3c(Nc4ccc(I)cc4F)n(C)c(=O)c(C)c32)c1 [Trametinib] (partner 0.02 µM)
Outline: (§1)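 Five library-drug doses in √10 steps were combined with a fixed anchor-drug dose, or a single drug was given alone, by pin tool to lung cancer cell lines in 1536-well plates the day after seeding. Nuclei were stained and counted after 5 days. Relative viability is the nuclei count in treated wells over that in vehicle wells, taken as the median of duplicate plates.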

[1] = compound: C1CNCCC1C2=CC(=NN2)C3=CC=NC=C3 + O=C(c1cc(Cc2n[nH]c(=O)c3ccccc23)ccc1F)N1CCN(C(=O)C2CC2)CC1 [Olaparib] (partner 8 µM)
Outline: as §1

[2] = compound: C[C@@H](N)c1ccc(C(=O)Nc2ccnc3[nH]ccc23)cc1 + CS(=O)(=O)N1CCN(Cc2cc3nc(-c4cccc5[nH]ncc45)nc(N4CCOCC4)c3s2)CC1 [Pictilisib] (partner 1 µM)
Outline: as §1

[3] = compound: C[C@@H](N)c1ccc(C(=O)Nc2ccnc3[nH]ccc23)cc1 + Nc1nc2[nH]cc(CCc3ccc(C(=O)N[C@@H](CCC(=O)O)C(=O)O)cc3)c2c(=O)[nH]1 [Pemetrexed] (partner 0.2 µM)
Outline: as §1

Row | Cell Line | relative viability (Tanzisertib + Trametinib; first compound 0.08 µM) | relative viability (Tanzisertib + Trametinib; first compound 0.253 µM) | relative viability (Tanzisertib + Trametinib; first compound 0.8 µM) | relative viability (Tanzisertib + Trametinib; first compound 2.53 µM) | relative viability (Tanzisertib + Trametinib; first compound 8 µM) | relative viability ([1]; first compound 0.08 µM) | relative viability ([1]; first compound 0.8 µM) | relative viability ([1]; first compound 2.53 µM) | relative viability ([1]; first compound 8 µM) | relative viability ([2]; first compound 0.04 µM) | relative viability ([2]; first compound 0.1265 µM) | relative viability ([2]; first compound 0.4 µM) | relative viability ([2]; first compound 1.265 µM) | relative viability ([2]; first compound 4 µM) | relative viability ([3]; first compound 0.04 µM) | relative viability ([3]; first compound 0.1265 µM) | relative viability ([3]; first compound 0.4 µM) | relative viability ([3]; first compound 1.265 µM) | relative viability ([3]; first compound 4 µM)
1 | HARA | 0.801 | 0.692 | 0.689 | 0.711 | 0.687 | 0.762 | 1.27 | 1.21 | 1.11 | 0.634 | 0.517 | 0.432 | 0.475 | 0.292 | 0.191 | 0.209 | 0.257 | 0.249 | 0.236
2 | NCI-H1944 | 0.455 | 0.422 | 0.435 | 0.343 | 0.403 | 0.403 | 0.384 | 0.389 | 0.384 | 0.398 | 0.339 | 0.337 | – | 0.345 | 0.594 | 0.605 | 0.73 | 0.596 | 0.611
3 | NCI-H2347 | 0.256 | 0.255 | 0.261 | 0.259 | 0.29 | 0.534 | 0.514 | 0.477 | 0.571 | 0.472 | 0.667 | 0.727 | 0.832 | 0.796 | 0.41 | 0.424 | 0.452 | 0.388 | 0.403
4 | 201T | 0.731 | 0.756 | 0.701 | 0.806 | 0.764 | 0.832 | 0.863 | 0.832 | 0.858 | 0.702 | 0.636 | 0.685 | 0.519 | 0.788 | 0.316 | 0.297 | 0.382 | 0.29 | 0.314
5 | PC-14 | 0.886 | 0.673 | 0.805 | 0.666 | 0.295 | 0.21 | 0.273 | 0.228 | 0.279 | 0.679 | 0.699 | 0.684 | 0.665 | 0.612 | 0.139 | 0.126 | 0.138 | – | 0.169
6 | NCI-H1650 | 0.458 | 0.689 | 0.609 | 0.532 | 0.415 | 0.613 | 0.948 | 0.795 | 0.69 | 0.672 | 0.584 | 0.595 | 0.318 | 0.586 | 0.443 | 0.394 | 0.399 | 0.349 | 0.355
7 | NCI-H1792 | 0.501 | 0.455 | 0.35 | 0.413 | 0.244 | 0.504 | 0.385 | 0.471 | 0.353 | 0.368 | 0.273 | 0.38 | 0.349 | 0.288 | 0.817 | 0.731 | 0.875 | 0.72 | 0.584
8 | COR-L23 | 0.717 | 0.627 | 0.7 | 0.616 | 0.547 | 0.287 | 0.344 | 0.323 | 0.406 | 0.621 | 0.867 | 0.799 | 0.591 | 0.562 | 0.204 | 0.195 | 0.188 | 0.201 | 0.178
9 | ChaGo-K-1 | 0.902 | 0.896 | 0.821 | 0.91 | 0.832 | 0.546 | 0.426 | 0.435 | 0.362 | 0.777 | 0.937 | 0.988 | – | 0.696 | 0.259 | 0.277 | 0.257 | 0.234 | 0.241
10 | HOP-62 | 0.389 | 0.341 | 0.435 | 0.412 | 0.346 | 0.234 | 0.386 | 0.275 | 0.47 | 0.539 | 0.413 | 0.827 | 0.0717 | 0.887 | 0.286 | 0.344 | 0.252 | 0.298 | 0.288
11 | NCI-H1915 | 0.31 | 0.306 | 0.296 | 0.268 | 0.258 | 0.265 | 0.272 | 0.269 | 0.25 | 1.15 | 0.92 | 0.925 | – | 0.837 | – | 0.501 | 0.541 | – | 0.449
12 | BEN | 1.06 | 1.09 | 1.04 | 1.08 | 1.09 | 1.01 | 1.09 | 1.2 | 0.967 | 0.537 | 0.454 | 0.611 | 0.617 | 0.44 | 0.556 | 0.711 | 0.701 | 0.877 | 0.634
13 | NCI-H1437 | 0.588 | 0.481 | 0.512 | 0.558 | 0.43 | 0.636 | 0.644 | 0.679 | 0.642 | 0.468 | 0.419 | 0.407 | 0.396 | 0.488 | 0.3 | 0.307 | 0.351 | 0.329 | 0.34
14 | EMC-BAC-2 | 0.904 | 0.84 | 0.864 | 0.955 | 0.962 | 0.346 | 0.521 | 0.476 | 0.477 | 0.491 | 0.575 | 0.531 | 0.476 | 0.411 | 0.401 | 0.422 | 0.452 | 0.471 | 0.402
15 | NCI-H647 | 0.702 | 0.47 | 0.524 | 0.528 | 0.418 | 0.556 | 0.661 | 0.511 | 0.552 | 0.301 | 0.394 | 0.451 | – | 0.42 | 0.199 | 0.2 | 0.24 | 0.166 | 0.145
16 | LXF-289 | 0.694 | 0.691 | 0.748 | 0.663 | 0.82 | 1.04 | 1.16 | 0.968 | 1.05 | 0.943 | 0.779 | 0.928 | 0.872 | 0.683 | 0.861 | 0.909 | 0.948 | 0.929 | 0.79
17 | LOU-NH91 | 0.824 | 0.811 | 0.773 | 0.756 | 0.71 | 0.927 | 0.963 | 0.974 | 0.877 | 0.517 | 0.517 | 0.562 | 0.398 | 0.549 | 0.378 | 0.378 | 0.393 | 0.44 | 0.368
